This is an account of results in patent US20130195956A1, “Transdermal Hormone Delivery” (Agile Therapeutics, Inc., priority 2012, published 2013).

Molecules are shown by their SMILES. Values joined by “and” are separate entries in the source; they are usually repeats but may differ in a detail not shown here. Equal entries are not always repeated.

The nature of series [1]: 7 day in vitro skin permeation, Franz diffusion cells, hairless rat abdominal skin. As to conditions: for average cumulative amount permeated at the end of 7 days: donor: saturated solution in PEG-400, FIG. 6.
Source text: Skin was isolated from hairless rats (male, 8-10 weeks old and 350-400 g in weight) that were obtained from Charles River (Wilmington, Mass., USA). All the animals were allowed to acclimate for at least 1 week prior to their use in any experiment. […] Hairless rats were euthanized by carbon dioxide asphyxiation prior to the permeation experiment and abdominal skin was carefully excised using a pair of scissors and forceps. The underlying subcutaneous fat was removed from the excised skin and the abdominal skin thus obtained (˜1 mm thick) was used for the permeation experiments.
The 7 day permeation studies were performed using in vitro Franz diffusion cells (PermeGear, Inc., Hellertown, Pa., USA) having an effective diffusion surface area of 0.64 cm^2 (n≧3). […] These served as corresponding donor solutions. The receptor phase consisted of PEG 400 having gentamycin sulfate (80 mg/L). Gentamycin sulfate was added to the receptor phase to prevent microbial growth during the 7 day study. During the entire study, the receptor phase was maintained at 37° C. with constant stirring at 600 rpm. Freshly excised and cleaned hairless rat abdominal skin was obtained on the day of the experiment. This isolated skin was placed in between the donor and the receptor compartments and the entire set up was then secured in place using a clamp. Donor solution (0.5 ml) was then loaded into the donor cells using a pipette and the top was covered using parafilm and a silver foil. […] The only difference was that instead of using the saturated desogestrel solution as donor, desogestrel containing patches were used. Transdermal patches, large enough to cover the receptor compartment top, were cut out of the cast sheets, the release liner was removed and the patches were placed on the skin such that the adhesive side of the patch was facing the stratum corneum side of the skin. The donor cell was then placed and the entire set up was secured using a clamp. All samples obtained were analyzed using HPLC.
Analysis of the amount of drug in the samples was performed using a chromatographic method described in the literature with few modifications. […] Phenomenex RP C6 Luna 5μ column (Phenomenex, Torrance, Calif.) set at 35° C. was employed for gradient elution method. The mobile phase consisted of methanol and water. The gradient method was initiated with the use of a 70:30 (methanol:water) solution, followed by a change of the mobile phase composition to 100% methanol over the next 7 minutes. This methanol:water (100:0) composition was maintained till the 10th minute and then the mobile phase composition was changed again to a composition of 70:30 (methanol:water) by the 12th min. The run time of each injection was 15 minutes and the injection volume was 100 μl. The flow rate of the mobile phase throughout the run was 1.5 ml/min. […] The standard curve was linear over the range of 0.5-100 μg.
Student t-test and analysis of variance (ANOVA) were used to determine statistically significant differences. The p-value used in this study was 0.05.
For series [2] the following is noted: cited from earlier work.
Series [3] in a line: Slide and patch crystallization studies for saturation solubility in adhesives and additives. Type of series: physicochemical. The method, then:
Drug in adhesive transdermal patches were prepared as follows. Predetermined amounts of drug, adhesive, ethyl acetate and/or additives (copovidone/mineral oil) were weighed into a glass container with lid and sealed using a parafilm to minimize loss of organic solvents. The formulation was stirred for 2 hours using a magnetic stirrer to form a homogenous mixture. The mixture was then cast on a release liner (3 mil fluoropolymer coated polyester film, Scotchpak™ 9744 from 3M) using a Gardner film casting knife (BYK-AG-4300 series, Columbia, Md., USA) and the cast sheet was dried in an oven at 60° C. for 17 minutes. Thereafter, the entire sheet was laminated using a backing membrane (2 mil polyester with an ethylene vinyl acetate copolymer, Scotchpak™ 9732 from 3M), which was placed on the cast film using a roller, ensuring no air pockets were formed. […]
The three different adhesives that were investigated for the preparation of desogestrel transdermal patches were two acrylate adhesives, Duro-Tak 87-4098 and Duro-Tak 87-202A, and one PIB adhesive, Duro-Tak 87-608A. […] The saturation solubility of desogestrel in these adhesives was determined using the slide method discussed earlier as well as crystallization studies on complete patches. […]

The procedure of series [4]: Sheets were cast with the blend shown in Table 1 and dried for 17 minutes at 60 degrees Centigrade. Drying was followed by lamination to a polyester backing membrane and circular cutting of individual patches. The dry formulation of the patches is shown in the second column of Table 1.
The nature of series [5]: Skin permeation of LNG from LNG/EE patches with four enhancers, Franz diffusion cells, human skin compared with rat skin. Type of series: in vitro ADME. As to conditions: patches of Example 1 with four skin permeation enhancers; FIGS. 1-4. The method, then: A skin permeation experiment for the delivery of LNG from the patches prepared in Example 1 was performed (n=3). Three separate patches were cut to appropriate size such that they would cover the top of the receptor compartment of a Franz skin diffusion cell (exposed surface area of 0.64 cm^2). Hairless rat skin was freshly excised before the permeation experiment. PBS (0.1×) having 80 mg/L gentamycin sulfate and 0.5% Volpo was used as the receptor buffer (pH 7.2). Samples (0.5 ml) were taken at predetermined time points (3 hr, 6 hr, 12 hr, 24 hr, 2nd, 3rd, 4th, 5th, 6th and 7th day) and were analyzed for LNG levels using High Pressure Liquid Chromatography (HPLC).
The average flux (FIG. 1) and the cumulative amount (FIG. 2) of LNG that permeated across the hairless rat skin, during a period of four days, were determined and are shown below. In addition, patches manufactured using production equipment under the same processes and containing exactly the same amounts and ingredients as the pilot patches mentioned in Example 1 were used for comparison.
The above studies were performed using rat skin, which, for many drugs, is known to have similar permeation characteristics as human skin. […]

Where [6] appears, read: general statement in description.

`C#C[C@]1(O)CC[C@H]2[C@@H]3CCC4=CCCC[C@@H]4[C@H]3C(=C)C[C@@]21CC` [desogestrel]: the “average cumulative amount permeated at the end of 7 days” value in series [1] (hairless rat skin) amounted to 389.4±6.2 μg/sq.cm. For the same molecule, in series [1] (setting [6]), the “skin permeation relative to ethinyl estradiol” value is “higher” and the “skin permeation relative to levonorgestrel” value was “approximately ten-fold higher”. In addition, the “average cumulative amount and flux from saturated PEG solution compared with optimized patches” value in series [1] (p<0.05, hairless rat skin) is “significantly higher”. Besides, in series [1] (saturated PEG-400 solutions, p<0.05, FIGS. 5 and 6), the “average flux and cumulative amount compared with levonorgestrel” value is “significantly higher”. Moreover, the log partition coefficient (logP) in series [2] is recorded as 4. Moreover, in series [3] (slides and patches), the “saturation solubility in PIB adhesive (Duro-Tak 87-608A)” value was 3-4 % w/w. Besides, the “saturation solubility in copovidone (Plasdone S-630)” value in series [3] (slides, drug:copovidone w/w ratios, up to 6 months) is 70-80 % w/w and 70 % w/w.

With `C#C[C@]1(O)CC[C@H]2[C@@H]3CCc4cc(O)ccc4[C@H]3CC[C@@]21C` [ethinyl estradiol], in series [4], the “saturation of the patch with the hormone” value was 22%.

As for `C#C[C@]1(O)CC[C@H]2[C@@H]3CCC4=CC(=O)CC[C@@H]4[C@H]3CC[C@@]21CC` [levonorgestrel], the “permeation through rat skin compared with permeation through human skin” value in series [5] is given as “very similar”. Also, the “average cumulative amount permeated at the end of 7 days” value in series [1] (hairless rat skin) is reported as 1.8±0.1 μg/sq.cm. Further, in series [2], the logP is listed as 3.8.

As usually defined, the logP is a log measure of how a compound divides between an organic and an aqueous phase.
